{"source": "paper PMC4992173", "about": "“Divergent synthesis and identification of the cellular targets of deoxyelephantopins” (Nature Communications, 2016)", "molecular_target": "T1, Zinc finger protein 346 (ZNF346) (Homo sapiens, UniProt Q9UL40)", "T1 construct": "1,522 proteins were enriched from MCF7 cells by 10 μM probe 24c; endogenous in cells; host or cells: MCF7", "T1 sequence (Q9UL40 whole entry)": "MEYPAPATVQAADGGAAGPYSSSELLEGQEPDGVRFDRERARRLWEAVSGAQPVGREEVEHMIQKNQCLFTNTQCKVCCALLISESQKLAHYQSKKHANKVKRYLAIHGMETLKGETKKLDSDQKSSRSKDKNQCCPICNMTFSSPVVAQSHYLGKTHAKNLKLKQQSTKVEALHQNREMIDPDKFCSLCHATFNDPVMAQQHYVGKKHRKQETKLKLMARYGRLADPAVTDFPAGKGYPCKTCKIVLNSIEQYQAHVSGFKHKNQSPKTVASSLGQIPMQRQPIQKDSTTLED", "assay": "In situ competitive profiling in live MCF7 cells (LFQ): ZNF346", "assay_type": "cell-based", "settings": "4 h, then 10 µM 24c, n=4", "text": "In our efforts to determine the direct molecular targets of deoxyelephantopin we first performed a gel-based competitive in situ proteomic profiling assay[41] […] While the greater conformational flexibility of probe 24c could potentially lead to more promiscuous target engagement relatively to deoxyelephantopin, it was favoured based on the fact that an alkyne moiety appended to the rigid scaffold of deoxyelephantopin may hinder some of its interactions. MCF7 cells were pretreated with various concentrations of deoxyelephantopin for 4 h, harvested, lysed and the lysates were treated with the fluorogenic probe 24c-Cy3 (10 μM; Supplementary Fig. 10). […] Furthermore, cells were pretreated with 20 μM concentration of deoxyelephantopin or 24c and the proteomic profiles were compared (Fig. 6b, Supplementary Fig. 11). Multiple bands were detected that were equally competed by both DEP and 24c, thus again confirming that 24c can be used as an acceptable clickable analogue of deoxyelephantopin in pulldown assays. Having established the optimal labelling conditions by SDS–PAGE, we next carried out a mass spectrometry-based competitive profiling assay[42] coupled with the method of stable isotope labelling of amino acids in culture (SILAC)[43]. […]\nFigure 6 Proteome-wide identification of deoxyelephantopin targets. […] Quantification was performed using label-free quantification (LFQ) method (n=4). […]"}
{"smiles": "C=C(C)C(=O)O[C@H]1CC2=C[C@@H](C/C(C)=C/[C@H]3OC(=O)C(=C)[C@H]13)OC2=O", "note": "[deoxyelephantopin]", "values": [{"measurement": "LFQ ratio 20 µM Deoxyelephantopin/DMSO with 24c", "value": 0.00}]}
